Peptide text beside a SMILES is read from it.
Legend:
Type in all cases: ADME
[1] = molecular target: T1, Solute carrier family 15 member 1 (Homo sapiens, UniProt P46059); test: Inhibitors of transporters of clinical importance in the absorption and disposition of drugs, PEPT1
T1 sequence (P46059 whole entry): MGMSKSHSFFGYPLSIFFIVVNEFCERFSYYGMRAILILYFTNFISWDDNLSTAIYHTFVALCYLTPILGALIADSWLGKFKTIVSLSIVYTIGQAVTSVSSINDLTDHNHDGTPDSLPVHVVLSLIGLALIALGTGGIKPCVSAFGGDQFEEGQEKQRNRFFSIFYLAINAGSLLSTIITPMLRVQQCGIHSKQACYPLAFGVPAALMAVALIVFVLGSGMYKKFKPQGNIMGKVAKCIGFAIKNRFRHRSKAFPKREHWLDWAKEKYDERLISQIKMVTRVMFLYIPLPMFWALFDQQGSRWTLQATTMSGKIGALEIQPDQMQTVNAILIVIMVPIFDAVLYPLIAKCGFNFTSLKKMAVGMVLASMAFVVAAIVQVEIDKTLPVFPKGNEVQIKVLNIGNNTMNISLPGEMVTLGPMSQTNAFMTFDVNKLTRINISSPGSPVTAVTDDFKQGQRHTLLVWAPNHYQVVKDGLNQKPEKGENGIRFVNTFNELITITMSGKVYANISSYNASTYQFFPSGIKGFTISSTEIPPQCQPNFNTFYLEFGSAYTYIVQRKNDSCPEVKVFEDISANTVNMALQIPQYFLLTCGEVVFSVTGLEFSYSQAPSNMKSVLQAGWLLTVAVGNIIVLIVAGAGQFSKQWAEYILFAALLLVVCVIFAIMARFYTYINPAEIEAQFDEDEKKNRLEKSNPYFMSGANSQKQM

[2] = molecular target: T2, Solute carrier organic anion transporter family member 2B1 (Homo sapiens, UniProt O94956); test: Inhibitors of transporters of clinical importance in the absorption and disposition of drugs, OATP2B1
T2 sequence (O94956 whole entry): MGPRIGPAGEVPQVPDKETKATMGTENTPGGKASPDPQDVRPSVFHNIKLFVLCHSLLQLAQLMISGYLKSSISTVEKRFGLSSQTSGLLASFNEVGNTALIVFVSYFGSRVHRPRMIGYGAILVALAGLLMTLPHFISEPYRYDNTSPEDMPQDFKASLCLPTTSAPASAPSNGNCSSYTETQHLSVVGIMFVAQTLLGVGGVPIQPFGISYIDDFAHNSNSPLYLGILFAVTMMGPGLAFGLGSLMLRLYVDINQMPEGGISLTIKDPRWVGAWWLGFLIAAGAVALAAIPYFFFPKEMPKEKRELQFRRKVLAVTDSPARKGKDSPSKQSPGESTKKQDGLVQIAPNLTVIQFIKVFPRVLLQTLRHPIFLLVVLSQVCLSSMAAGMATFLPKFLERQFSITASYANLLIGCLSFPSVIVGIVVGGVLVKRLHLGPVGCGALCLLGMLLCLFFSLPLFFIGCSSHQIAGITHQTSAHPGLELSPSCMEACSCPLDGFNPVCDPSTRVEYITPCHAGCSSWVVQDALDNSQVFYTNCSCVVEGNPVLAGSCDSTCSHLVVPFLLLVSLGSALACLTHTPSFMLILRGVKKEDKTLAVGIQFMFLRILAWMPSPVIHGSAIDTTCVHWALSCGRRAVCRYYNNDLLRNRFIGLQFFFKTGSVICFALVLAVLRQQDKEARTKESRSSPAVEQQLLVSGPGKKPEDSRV

[3] = molecular target: T3, Solute carrier organic anion transporter family member 1B1 (Homo sapiens, UniProt Q9Y6L6); test: Inhibitors of transporters of clinical importance in the absorption and disposition of drugs, OATP1B1
T3 sequence (Q9Y6L6 whole entry): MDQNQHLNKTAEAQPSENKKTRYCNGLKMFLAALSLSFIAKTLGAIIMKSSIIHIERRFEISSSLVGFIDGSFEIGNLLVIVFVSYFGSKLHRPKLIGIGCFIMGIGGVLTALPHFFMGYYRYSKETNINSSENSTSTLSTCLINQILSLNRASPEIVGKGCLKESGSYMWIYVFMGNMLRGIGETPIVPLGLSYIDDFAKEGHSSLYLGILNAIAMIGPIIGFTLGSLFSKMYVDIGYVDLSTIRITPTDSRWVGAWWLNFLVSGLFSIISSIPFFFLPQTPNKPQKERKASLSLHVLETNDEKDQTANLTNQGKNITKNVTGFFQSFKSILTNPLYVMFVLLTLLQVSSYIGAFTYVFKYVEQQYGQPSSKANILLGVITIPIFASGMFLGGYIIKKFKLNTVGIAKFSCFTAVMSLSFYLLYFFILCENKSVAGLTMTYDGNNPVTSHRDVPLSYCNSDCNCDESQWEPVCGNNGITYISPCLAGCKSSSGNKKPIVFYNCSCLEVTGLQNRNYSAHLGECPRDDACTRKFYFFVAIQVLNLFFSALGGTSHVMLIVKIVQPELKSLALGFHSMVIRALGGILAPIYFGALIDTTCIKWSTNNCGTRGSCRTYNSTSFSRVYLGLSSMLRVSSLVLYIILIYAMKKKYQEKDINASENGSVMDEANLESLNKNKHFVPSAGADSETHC

[4] = molecular target: T4, Solute carrier organic anion transporter family member 1B3 (Homo sapiens, UniProt Q9NPD5); test: Inhibitors of transporters of clinical importance in the absorption and disposition of drugs, OATP1B3
T4 sequence (Q9NPD5 whole entry): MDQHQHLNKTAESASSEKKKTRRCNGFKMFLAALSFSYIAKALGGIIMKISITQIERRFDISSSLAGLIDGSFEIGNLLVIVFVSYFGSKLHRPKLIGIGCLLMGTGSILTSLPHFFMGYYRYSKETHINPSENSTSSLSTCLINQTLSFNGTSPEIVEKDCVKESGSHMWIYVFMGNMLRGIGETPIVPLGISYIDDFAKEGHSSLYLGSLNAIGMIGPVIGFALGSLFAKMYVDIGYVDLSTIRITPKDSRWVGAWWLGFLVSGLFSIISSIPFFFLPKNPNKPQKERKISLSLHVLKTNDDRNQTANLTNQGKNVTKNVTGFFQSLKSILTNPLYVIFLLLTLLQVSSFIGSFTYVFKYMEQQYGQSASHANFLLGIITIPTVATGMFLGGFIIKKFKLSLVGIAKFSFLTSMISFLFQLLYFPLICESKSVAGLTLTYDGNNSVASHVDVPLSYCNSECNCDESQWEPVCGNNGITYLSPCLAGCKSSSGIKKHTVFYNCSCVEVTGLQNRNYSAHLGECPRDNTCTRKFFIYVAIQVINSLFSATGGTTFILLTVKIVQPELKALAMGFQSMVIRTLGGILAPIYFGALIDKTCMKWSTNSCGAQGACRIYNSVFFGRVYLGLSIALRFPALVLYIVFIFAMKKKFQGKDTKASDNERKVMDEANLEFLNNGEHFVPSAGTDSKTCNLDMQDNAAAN

Bile salt export pump = Bile salt export pump (Homo sapiens, UniProt O95342); test: Inhibitors of transporters of clinical importance in the absorption and disposition of drugs, BSEP
Sequence of Bile salt export pump (O95342 whole entry): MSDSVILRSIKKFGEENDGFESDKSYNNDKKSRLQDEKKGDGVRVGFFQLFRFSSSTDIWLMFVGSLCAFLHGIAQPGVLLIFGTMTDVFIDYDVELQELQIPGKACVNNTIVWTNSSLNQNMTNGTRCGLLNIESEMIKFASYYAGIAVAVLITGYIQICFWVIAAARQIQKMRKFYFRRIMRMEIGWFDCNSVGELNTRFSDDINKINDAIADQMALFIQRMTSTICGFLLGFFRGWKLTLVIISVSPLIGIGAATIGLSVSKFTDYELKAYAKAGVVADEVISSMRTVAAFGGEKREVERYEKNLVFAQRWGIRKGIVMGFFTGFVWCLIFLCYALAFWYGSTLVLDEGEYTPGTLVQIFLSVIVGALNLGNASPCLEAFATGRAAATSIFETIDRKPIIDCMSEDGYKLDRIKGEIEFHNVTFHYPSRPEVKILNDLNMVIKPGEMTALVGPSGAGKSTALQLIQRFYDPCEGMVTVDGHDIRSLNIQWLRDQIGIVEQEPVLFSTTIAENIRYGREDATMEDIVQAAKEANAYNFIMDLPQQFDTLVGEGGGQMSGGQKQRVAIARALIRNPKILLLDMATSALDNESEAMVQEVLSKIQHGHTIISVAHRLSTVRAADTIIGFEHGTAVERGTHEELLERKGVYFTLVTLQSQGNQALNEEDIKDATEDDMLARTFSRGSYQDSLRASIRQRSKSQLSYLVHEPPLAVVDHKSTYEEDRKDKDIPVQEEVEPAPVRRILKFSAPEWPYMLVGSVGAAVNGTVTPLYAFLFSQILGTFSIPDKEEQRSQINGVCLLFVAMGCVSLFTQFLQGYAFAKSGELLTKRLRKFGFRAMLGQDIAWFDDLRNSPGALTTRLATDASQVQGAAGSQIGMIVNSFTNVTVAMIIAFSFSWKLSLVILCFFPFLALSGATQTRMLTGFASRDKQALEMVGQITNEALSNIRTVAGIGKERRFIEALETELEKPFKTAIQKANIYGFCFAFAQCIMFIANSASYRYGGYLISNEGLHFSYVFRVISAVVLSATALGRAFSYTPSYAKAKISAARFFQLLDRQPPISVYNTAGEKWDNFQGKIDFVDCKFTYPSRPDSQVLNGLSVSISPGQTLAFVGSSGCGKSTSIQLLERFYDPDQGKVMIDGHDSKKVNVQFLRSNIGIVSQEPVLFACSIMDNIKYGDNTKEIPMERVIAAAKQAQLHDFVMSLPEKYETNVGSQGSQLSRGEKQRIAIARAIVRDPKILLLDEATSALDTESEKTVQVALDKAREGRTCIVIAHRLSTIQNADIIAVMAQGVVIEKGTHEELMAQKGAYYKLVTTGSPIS

[5] = molecular target: T5, Solute carrier organic anion transporter family member 1A2 (Homo sapiens, UniProt P46721); test: Inhibitors of transporters of clinical importance in the absorption and disposition of drugs, OATP1A2
T5 sequence (P46721 whole entry): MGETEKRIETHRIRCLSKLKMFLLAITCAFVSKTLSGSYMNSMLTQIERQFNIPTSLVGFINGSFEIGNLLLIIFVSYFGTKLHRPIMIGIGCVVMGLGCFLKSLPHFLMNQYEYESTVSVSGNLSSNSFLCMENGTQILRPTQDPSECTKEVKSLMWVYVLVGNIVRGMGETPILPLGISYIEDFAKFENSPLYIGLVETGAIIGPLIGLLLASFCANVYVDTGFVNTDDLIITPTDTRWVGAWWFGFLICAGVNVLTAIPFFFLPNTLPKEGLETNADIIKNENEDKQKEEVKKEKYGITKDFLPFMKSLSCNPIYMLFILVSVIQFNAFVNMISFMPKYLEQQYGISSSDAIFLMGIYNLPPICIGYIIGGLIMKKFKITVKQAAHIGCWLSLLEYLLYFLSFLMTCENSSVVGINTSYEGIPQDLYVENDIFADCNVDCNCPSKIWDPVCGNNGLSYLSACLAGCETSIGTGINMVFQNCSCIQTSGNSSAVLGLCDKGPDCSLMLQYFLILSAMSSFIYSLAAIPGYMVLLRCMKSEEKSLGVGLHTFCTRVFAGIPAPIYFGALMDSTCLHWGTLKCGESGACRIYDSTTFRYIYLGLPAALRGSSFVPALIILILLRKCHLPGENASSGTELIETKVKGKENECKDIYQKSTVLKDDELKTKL

Measured: Activity

NCC(=O)N1CCC[C@H]1C(=O)O [GLYCYL PROLINE] (H-Gly-Pro-OH)
transporter inhibitor: [1]

CO[C@H]1/C=C/O[C@@]2(C)Oc3c(C)c(O)c4c(O)c(c(/C=N/N5CCN(C)CC5)c(O)c4c3C2=O)NC(=O)/C(C)=C\C=C\[C@H](C)[C@H](O)[C@@H](C)[C@@H](O)[C@@H](C)[C@H](OC(C)=O)[C@@H]1C [RIFAMPIN]
not listed: [1]
transporter inhibitor: all other assays above

— ChEMBL document CHEMBL1743141, “Membrane transporters in drug development” (Nat Rev Drug Discov, 2010)
